Data: ChEMBL document CHEMBL5303711, “ECBD screening data for assay EOS300108” (2023)
Where a name gives a salt, the structure may show the parent alone. Calls of active or inactive are those of the source. The rule behind the calls is not given here.

assay: Cytotoxicity activity against human HepG2 cells assessed by CellTiter-Glo luminescent cell viability assay.; assay type: toxicity, cell-based; set-up: assay stage confirmatory assay, source tissue liver; details: HepG2 cells, read-out: IC50 relative

| Structure (SMILES) | CC50 |
| --- | --- |
| c1ccc(-n2cnc3c(Nc4cnn(C[C@H]5CCCO5)c4)ncnc32)cc1 | 5.8 µM (active) |
| CN(C)C1CCN(C(C)(C)CNCc2cccc(Cl)c2N)CC1 | 12 µM (active) |
| COc1ccc(NS(=O)(=O)c2ccc3onc(C(=O)N4CCCC4)c3c2)cc1OC | 0.6 µM (active) |
| COc1ccc2c(c1)cc(C(=O)N[C@@H](C)C(=O)N1CCN(Cc3ccccc3)CC1)n2C | 13.1 µM (inactive) |
| Cc1ccc2c(NS(=O)(=O)c3ccccc3Cl)cccc2c1Oc1ncccc1-c1ccnc(N[C@H]2CCCNC2)n1 | 5.2 µM (active) |
| CCCN1C(=O)COc2cc(-c3noc(C(=O)NC4CCN(Cc5ccccc5)CC4)n3)ccc21 | 15.2 µM (inactive) |
| CCCCc1ccc(-c2cnn3cccnc23)cc1 | 8.3 µM (inactive) |
| O=C(NC1CCN(CCCCC2(C(=O)NCC(F)(F)F)c3ccccc3-c3ccccc32)CC1)c1ccccc1-c1ccc(C(F)(F)F)cc1 [LOMITAPIDE] | 1.4 µM (active) |
| O=C1CCCN1c1ccc(S(=O)(=O)Nc2cccc3cccnc23)cc1 | 9.7 µM (active) |
| COc1ccccc1NC(=O)N1CCC(n2cnc3ccc(C)cc3c2=O)CC1 | 3.6 µM (active) |
| CS(=O)(=O)N1CCN(Cc2cc3nc(-c4cccc5[nH]ncc45)nc(N4CCOCC4)c3s2)CC1 [PICTILISIB] | 0.9 µM (active) |
| CCN(CC)CCCNC(=O)C1CCN(c2nc3ccccc3n(Cc3ccccc3)c2=O)CC1 | 6.4 µM (active) |
| COc1cc(CN2CCN(c3ccccc3C)CC2)ccc1O | 8 µM (active) |
| CN(c1ccccc1CNc1nc(Nc2ccc3c(c2)CC(=O)N3)ncc1C(F)(F)F)S(C)(=O)=O | 1 µM (active) |
| CC(CNC(=O)C1CCN(C)CC1)Cc1cccc2ccccc12 (configuration not stated) | 11.2 µM (active) |
| [O-][n+]1ccccc1S [PYRITHIONE] | 1.1 µM (active) |
| Cc1ccc(C)c(N2CCN(CCCNC(=O)CC3Oc4ccccc4NC3=O)CC2)c1 (configuration not stated) | 15.7 µM (active) |
| COc1ccc(CN(Cc2cn3c(C)cccc3n2)C2CC2)c(OC)c1 | 9.7 µM (active) |
| CC1CCc2c(sc3ncnc(NN)c23)C1 (configuration not stated) | 20.5 µM (inactive) |
| O=S(=O)(Nc1cccc2cccnc12)c1ccccc1F | 2.6 µM (active) |
| CCN(Cc1nc2cc(OC)c(OC)cc2c(=O)[nH]1)C(=O)c1ccc2c(c1)OCO2 | 12.7 µM (active) |
| c1cc(NC2CCNCC2)nc(-c2cnc3ccccn23)c1 | 4.5 µM (active) |
| C=CCc1cccc(/C=N/NC(=O)CN2CCN(Cc3ccccc3)CC2)c1O [PAC-1] | 6.3 µM (active) |

| Structure (SMILES) | CC50 |
| --- | --- |
| Nc1nc(N)c2c(OCC3CCN(Cc4c(Cl)cccc4Cl)CC3)cccc2n1 | 4 µM (active) |
| O=S1(=O)C[C@H](NC2CCCC2)[C@@H](S(=O)(=O)c2cccs2)C1 | 16.1 µM (active) |
| N=C(N)c1ccc(OCCCCCOc2ccc(C(=N)N)cc2)cc1 [PENTAMIDINE ISETHIONATE] | 3.4 µM (active) |
| COc1ccc(-c2nc(Cn3ncc(Cl)c(Cl)c3=O)co2)cc1 | 11 µM (active) |
| CN(C)Cc1ccc(-c2nc3cccc4c3n2CCNC4=O)cc1 | 10.9 µM (active) |
| Cc1ccc(Cl)cc1N1CCN(c2cc([C@H]3C[C@@H](O)C3)ncn2)CC1 | 9.5 µM (active) |
| COc1c(C)ncnc1NCc1cccc(C(F)(F)F)c1 | 2.9 µM (active) |
| COc1ccc2nc(NC(=O)N(C)Cc3nc(C)cs3)sc2c1 | 12.7 µM (inactive) |
| C[C@H]1CN(CC(=O)Nc2nc3ccc(F)cc3s2)CCN1c1nccn2cnnc12 | 8 µM (active) |
| CC1(C)CC(Nc2ccc(Nc3ccccc3)cc2)CC(C)(C)N1 | 10.9 µM (active) |
| O=C(c1ccc(Cl)cc1)N(CCCc1ccccc1)CCS(=O)(=O)N1CCNCC1 | 10.2 µM (active) |
| COCCNc1ncnc2scc(-c3ccccc3)c12 | 8.6 µM (active) |
| C#CCNC(=O)c1ccccc1NCc1ccc(C#N)cc1OC | 1 µM (active) |
| CCN(CC)CCCNC(=O)C1CCN(c2ncc(-c3ccccc3)cn2)CC1 | 9.7 µM (active) |
| CCOc1cccc(OCC)c2c(C)nc(C)c1-2 | 26.6 µM (inactive) |
| CN1C(=O)c2cccc3c(S(=O)(=O)NC4CCCCC4)ccc1c23 | 50 µM (inactive) |
| CCCc1cc(NCCCN2CCOCC2)n2ncc(-c3ccccc3)c2n1 | 10.8 µM (active) |
| C[C@@H]1Oc2ccc(NC(=O)c3ccc(S(=O)(=O)NCc4ccco4)cc3)cc2NC1=O | 6.8 µM (inactive) |
| Oc1cccc2ccc(Nc3ccccn3)nc12 | 0.7 µM (active) |
| CC(C)c1c(O)cc(/C=C/c2ccccc2)cc1O [TAPINAROF] | 8.9 µM (active) |
| CC1=CCN(C[C@H](O)COc2ccc3c(c2)OCO3)CC1 | 13.5 µM (inactive) |
| Clc1nss/c1=N\c1ccc(Br)cc1 | 24.2 µM (inactive) |
| c1ccc(COc2ccc3c(c2)CCNCC3)cc1 | 10.8 µM (active) |

| Structure (SMILES) | CC50 |
| --- | --- |
| CC/C(=C(\c1ccc(O)cc1)c1ccc(OCCN(C)C)cc1)c1ccccc1 [AFIMOXIFENE] | 3.9 µM (active) |
| Cc1cc([C@H]2CCCN(CC(=O)Nc3nccs3)C2)n[nH]1 | 6.6 µM (inactive) |
| COc1ccccc1OCC(=O)Nc1nc(-c2ccccn2)cs1 | 2.7 µM (active) |
| CCOc1ccc(S(=O)(=O)N2CC(C)CC(C)C2)cc1C (configuration not stated) | 17 µM (inactive) |
| Cc1nn(-c2ccccc2)nc1C(=O)Nc1ccc(S(=O)(=O)NCCCN2CCOCC2)cc1 | 10.3 µM (active) |
| CC1CC(C)CN(CCCNC(=O)Cn2nc(-c3ccc(Cl)cc3)ccc2=O)C1 (configuration not stated) | 14.5 µM (inactive) |
| Cn1cc(S(=O)(=O)N2CCC[C@@H]2COc2ccc(F)cc2)cc1C(N)=O | 0.6 µM (active) |
| CCS(=O)(=O)Nc1ccc2c(c1)/C(=C(/Nc1ccc(CN3CCCCC3)cc1)c1ccccc1)C(=O)N2 [HESPERADIN] | 0.2 µM (active) |
| COc1ccc(NC(=O)c2cc(-c3ccccc3O)no2)cc1 | 12.3 µM (active) |
| N#Cc1ccc(CN2CCN(C(=O)c3ccc(-n4cccn4)cc3)CC2)cc1 | 8.6 µM (active) |
| COc1ccccc1OCCOCCOCCOc1ccccc1OC | 12.6 µM (inactive) |
| [H]/N=C(\N/C(=N/[H])NCCCCCCNC(=N)NC(=N)Nc1ccc(Cl)cc1)Nc1ccc(Cl)cc1 [CHLORHEXIDINE] | 4.6 µM (active) |
| COc1ccc(NS(=O)(=O)c2ccc3onc(C(=O)N4CCCC4)c3c2)cc1 | 7.1 µM (active) |
| CNC(=O)[C@@H](c1ccccc1)N1CCc2cc(OC)c(OC)cc2[C@@H]1CCc1ccc(C(F)(F)F)cc1 [ALMOREXANT] | 20.4 µM (inactive) |
| Oc1ccc(CCNc2ncnc3cccc(F)c23)cc1 | 3.7 µM (active) |
| Fc1ccccc1CC1CCN(C[C@H]2[C@@H]3CNC[C@@H]32)CC1 | 8.8 µM (active) |
| CC[C@@]1(O)C(=O)OCc2c1cc1n(c2=O)Cc2cc3ccccc3nc2-1 [CAMPTOTHECIN] | 0.2 µM (active) |
| C=CC(=O)N1CCC(Oc2cc3c(Nc4ccc(Cl)c(Cl)c4F)ncnc3cc2OC)CC1 [POZIOTINIB] | 18.7 µM (inactive) |
| CC[C@@H]([C@H](C)O)n1ncn(-c2ccc(N3CCN(c4ccc(OC[C@@H]5CO[C@@](Cn6cncn6)(c6ccc(F)cc6F)C5)cc4)CC3)cc2)c1=O [POSACONAZOLE] | 19.6 µM (inactive) |
| CC(C)(C)n1ncc(N2CCN(c3ccc(C#N)cc3F)CC2)c(Cl)c1=O | 22.7 µM (active) |
| O=C1Nc2ccccc2/C1=C1\Nc2ccccc2\C1=N/O | 14.6 µM (inactive) |
| Cc1cc(C)cc(-n2ncc3c(OCC(=O)N4CCN(C(=O)c5ccco5)CC4)ncnc32)c1 | 3.6 µM (active) |
| CCCc1cc2c(N3CCN(C4=NCC(C)(C)S4)CC3)ncnc2s1 | 13.7 µM (active) |

| Structure (SMILES) | CC50 |
| --- | --- |
| CCN(CC)c1cc(C)nc(Nc2ccc(NC(=O)C(C)C)cc2)n1 | 6.8 µM (active) |
| O=C(Nc1cccnc1)N1CCC(Cc2cccc(Oc3ccc(C(F)(F)F)cn3)c2)CC1 | 12.7 µM (active) |
| CC(C)C[C@H](NC(=O)CNC(=O)c1cc(Cl)ccc1Cl)B(O)O [IXAZOMIB] | 0.1 µM (active) |
| FC(F)(F)c1cccc(Nc2nc(-c3ccccc3)nc3ncccc23)c1 | 41.6 µM (inactive) |
| CC(=O)[C@]1(O)Cc2c(O)c3c(c(O)c2[C@@H](O[C@H]2C[C@H](N)[C@H](O)[C@H](C)O2)C1)C(=O)c1ccccc1C3=O [IDARUBICIN HYDROCHLORIDE] | 0.2 µM (active) |
| O=C(Cc1cccc(F)c1)Nc1cccc2ncccc12 | 14.5 µM (inactive) |
| COCC(=O)O[C@]1(CCN(C)CCCc2nc3ccccc3[nH]2)CCc2cc(F)ccc2[C@@H]1C(C)C [MIBEFRADIL DIHYDROCHLORIDE] | 3.1 µM (active) |
| CC(C)(C)c1ccc(S(=O)(=O)NCc2ccc(C(=O)Nc3cccnc3)cc2)cc1 | 2.6 µM (active) |
| COc1cc(-c2cc(-c3ccc(N4CCNCC4)cc3)cnc2C)cc(OC)c1OC | 9.1 µM (active) |
| COc1ccc(OCC(=O)N2CCN(S(=O)(=O)c3ccc4c(c3)NC(=O)C(C)O4)CC2)cc1 (configuration not stated) | 5.8 µM (active) |
| CC(=O)NCc1ccc(C(=O)Cn2ncc(Cl)c(Cl)c2=O)cc1 | 8 µM (active) |
| CC1CN(CCS(=O)(=O)c2ccc(Oc3ccc(S(=O)(=O)CCN4CC(C)OC(C)C4)cc3)cc2)CC(C)O1 (configuration not stated) | 6.1 µM (active) |
| O=C(NOCCO)c1ccc2cncn2c1Nc1ccc(I)cc1F [GDC-0623] | < 0.1 µM (active) |
| CCS(=O)(=O)Nc1ccc(Oc2ccc(F)cc2F)c(-c2cn(C)c(=O)c3[nH]ccc23)c1 [MIVEBRESIB] | 0.3 µM (active) |
| Cc1cc(C)cc(N2CCN(C(=O)c3cnn4ccccc34)CC2=O)c1 | 0.7 µM (active) |
| O=C(Nc1nc(-c2ccc(F)cc2)n[nH]1)c1ccco1 | 3.4 µM (active) |
| CC1=NN(C(=O)c2ccc(N(C)C)cc2)C(O)(C(F)(F)F)C1 (configuration not stated) | 25 µM (inactive) |
| Cc1cc(NCCCN2CCC(C)CC2)c2ccccc2n1 | 6.5 µM (active) |
| O=C(Nc1nc(-c2ccc(S(=O)(=O)N3CCOCC3)cc2)cs1)c1cccs1 | 5.3 µM (active) |
| CN1CCC(c2cc(-c3ccncc3)c(-c3ccc(F)cc3)[nH]2)CC1 | 9.2 µM (active) |
| CC(=O)Nc1cccc(NC(=O)c2cc3ccccc3cc2O)c1 | 1.6 µM (inactive) |
| Cc1cc(C(=O)Nc2ccccn2)c2ccccc2n1 | 2.1 µM (active) |
| COc1ncccc1-c1csc(-c2ccoc2)n1 | 1 µM (active) |
